Results taken from PubChem BioAssay (NCI).
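Exposure lasted 48 hours, with cells grown in 96-well plates and compounds tested at five concentrations. TGI denotes the concentration required for complete inhibition of growth.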

How the values were obtained:
Assay in all cases: DTP human tumour cell line panel, 48 h
ACHN renal = test system: ACHN renal
CAKI-1 renal = test system: CAKI-1 renal
HT29 colon = test system: HT29 colon
IGROV1 ovarian = test system: IGROV1 ovarian
KM12 colon = test system: KM12 colon
NCI-H460 lung = test system: NCI-H460 lung
RPMI-8226 leukemia = test system: RPMI-8226 leukemia
SF-295 CNS = test system: SF-295 CNS
SK-MEL-2 melanoma = test system: SK-MEL-2 melanoma
SK-MEL-5 melanoma = test system: SK-MEL-5 melanoma
SN12C renal = test system: SN12C renal
UO-31 renal = test system: UO-31 renal
HS 578T breast = test system: HS 578T breast

Structure (SMILES) | TGI (ACHN renal) [µM] | TGI (CAKI-1 renal) [µM] | TGI (HT29 colon) [µM] | TGI (IGROV1 ovarian) [µM] | TGI (KM12 colon) [µM] | TGI (NCI-H460 lung) [µM] | TGI (RPMI-8226 leukemia) [µM] | TGI (SF-295 CNS) [µM] | TGI (SK-MEL-2 melanoma) [µM] | TGI (SK-MEL-5 melanoma) [µM] | TGI (SN12C renal) [µM] | TGI (UO-31 renal) [µM] | TGI (HS 578T breast) [µM]
Cc1ccc(S(=O)(=O)N/N=C/c2oc(-c3ccccc3Cl)c(-c3ccccc3Cl)c2[N+](=O)[O-])cc1 | 39.2 | > 100 | > 100 | 73.3 | > 100 | 29.9 | 30.3 | > 100 | 76.9 | 43.1 | 66.6 | 36 | –
CC(=O)O[C@H]1[C@H](OC(C)=O)[C@@H](CN=[N+]=[N-])OCO[C@@H]1CN=[N+]=[N-] | > 100 | – | > 100 | > 100 | > 100 | > 100 | > 100 | > 100 | > 100 | > 100 | > 100 | – | > 100
Cc1ccc(NC(=O)C(=O)C2NC(=S)NC2=O)c([N+](=O)[O-])c1 (configuration not stated) | > 100 | > 100 | > 100 | > 100 | > 100 | > 100 | > 100 | > 100 | > 100 | > 100 | > 100 | > 100 | –
CCOP(=O)(OCC)/C(C#N)=C/c1ccc[nH]1 | > 100 | > 100 | > 100 | – | > 100 | > 100 | > 100 | > 100 | > 100 | > 100 | > 100 | > 100 | –
O=C1C=CC[C@H](/C=C/C[C@@H](O)C[C@H](O)/C=C/c2ccccc2)O1 | 27.8 | 19.9 | 23.5 | 28 | 24.7 | 35.3 | – | 29.8 | 26.3 | 27.4 | 26.9 | 25.9 | 60.2
NC(CCCCN=Cc1nc(-c2ccccc2)oc1O)C(=O)O (configuration not stated) | > 100 | – | > 100 | > 100 | – | > 100 | > 100 | > 100 | > 100 | > 100 | > 100 | > 100 | –
CC(C)c1ccc2c(c1)C=C1OC(=O)[C@]3(C)CCC[C@@]2(C)C13 (some centres not stated) | > 100 | > 100 | > 100 | > 100 | > 100 | > 100 | > 100 | > 100 | – | > 100 | > 100 | > 100 | > 100
O=c1[nH]c(=O)n(C2CC(O)C(CO)O2)cc1C#Cc1cc(C(F)(F)F)cc(C(F)(F)F)c1 (configuration not stated) | > 100 | > 100 | > 51.9 | > 100 | > 100 | > 100 | > 100 | > 100 | > 100 | > 55.6 | > 100 | > 100 | –
CCn1c(-c2ccccc2)nc2c1C(=O)c1ccccc1C2=O | – | – | 30.3 | 79.8 | 73.8 | 46.5 | > 100 | 62.9 | – | 23.2 | > 100 | – | > 100
COc1ccc(CC2NCCc3cc(OC)c(OC)cc32)cc1 (configuration not stated) | > 100 | > 100 | > 100 | > 100 | > 100 | > 100 | > 100 | > 100 | > 100 | > 100 | > 100 | > 100 | –
C[C@@H]1OC(=O)C[C@H]2CC(=O)N(CCC3CN(S(=O)(=O)C(F)(F)F)c4ccc(Cc5ccc6c(c5)C(CCN5C[C@H]7[C@@H](CC(=O)O[C@H]7C)CC5=O)CN6S(=O)(=O)C(F)(F)F)cc43)C[C@@H]21 (some centres not stated) | > 100 | > 100 | – | – | > 100 | > 100 | > 100 | > 100 | > 100 | > 100 | – | > 100 | –
COC1=CC(=O)c2c(O)ccc(O)c2C1=O | 34.4 | – | 4.41 | 37.5 | 16.4 | 12.9 | 38.2 | 4.35 | – | 2.65 | 7.55 | 34.9 | 19.5
CN(C)CCCNC(=O)c1cc(NC(=O)c2cc(NC(=O)[C@H]3C[C@@H]3C(=O)Nc3cc(C(=O)Nc4cc(C(=O)NCCCN(C)C)n(C)c4)n(C)c3)cn2C)cn1C | > 100 | > 100 | > 100 | > 100 | > 100 | > 100 | > 100 | > 100 | > 100 | > 100 | > 100 | – | –
O=C(Nc1ccccc1)Nn1c(-c2cccs2)nc2ccc(I)cc2c1=O | > 100 | 53.3 | 84.7 | 71.7 | 94.8 | > 100 | 51.8 | 98.5 | – | 40.7 | > 100 | 80.3 | –
CC(=O)O[C@H]1[C@@H](OC2CCCC2(c2ccccc2)c2ccccc2)O[N+]([O-])=C[C@@]12COCc1cc3c(cc12)OCO3 (some centres not stated) | > 43.6 | > 100 | 9.11 | 22.2 | 11.3 | 31.5 | – | > 25.9 | – | 16.8 | > 39.6 | 14.1 | > 100
CCN(CC)CCNc1ccc2ncn3c4c(OC)cccc4c(=O)c1c23 | 25.2 | > 100 | 36.1 | 34.7 | 17.4 | 15.2 | – | 25.1 | – | 13.3 | 17.7 | 17.5 | 30.5
O=c1oc2cc(O)ccc2cc1-c1nc2ccccc2s1 | 52.4 | 74.6 | 85.6 | > 100 | > 100 | 62.2 | > 100 | 89.3 | 50.6 | 28.5 | 49 | 47.6 | –
O=C1c2ccccc2C(=O)C2C3c4ccccc4C(c4ccccc43)C12 (configuration not stated) | > 100 | – | 79.4 | 78.3 | > 100 | > 100 | 25.7 | 31.5 | – | – | 61.5 | 59.6 | –
CC(C)C(Sc1nc(-c2ccccc2)c(-c2ccccc2)[nH]1)C(=O)N/N=C/c1ccc([N+](=O)[O-])cc1 (configuration not stated) | > 100 | 47.9 | 23.2 | 42.2 | 24.5 | 34.1 | 47.6 | 33.9 | 29.4 | 21.3 | 25.9 | 26.5 | –

Structure (SMILES) | TGI (ACHN renal) [µM] | TGI (CAKI-1 renal) [µM] | TGI (HT29 colon) [µM] | TGI (IGROV1 ovarian) [µM] | TGI (KM12 colon) [µM] | TGI (NCI-H460 lung) [µM] | TGI (RPMI-8226 leukemia) [µM] | TGI (SF-295 CNS) [µM] | TGI (SK-MEL-2 melanoma) [µM] | TGI (SK-MEL-5 melanoma) [µM] | TGI (SN12C renal) [µM] | TGI (UO-31 renal) [µM] | TGI (HS 578T breast) [µM]
Nc1ccc(C(=O)NN2C(=O)C(Cl)C2c2ccc([N+](=O)[O-])cc2)cc1 (configuration not stated) | 27 | 36.1 | 32.6 | 16.6 | 23.9 | 22.1 | 42.8 | 28.3 | 31.8 | 28.8 | 30 | 30.8 | –
COc1ccc(N=Nc2c(C)c(C#N)c(=S)n(C3OC(COC(C)=O)C(OC(C)=O)C(OC(C)=O)C3OC(C)=O)c2-c2ccccc2)cc1 (configuration not stated) | > 100 | 21.3 | > 100 | – | 20.6 | > 100 | > 100 | 82.1 | 22.8 | – | 29.9 | 94.7 | –
CC(C)[Si](OCC1CC(C[C@H]2CC(C[C@H]3C[C@@H](CO[Si](C(C)C)(C(C)C)C(C)C)OC(C)(C)O3)OC(C)(C)O2)OC(C)(C)O1)(C(C)C)C(C)C (some centres not stated) | > 100 | > 100 | > 100 | > 100 | > 100 | > 100 | > 100 | > 100 | > 100 | > 100 | – | > 100 | –
CC1(C)O[C@H]2[C@@H]3N=C(c4ccccc4)O[C@@H]3C=C[C@H]2O1 | > 100 | > 100 | > 100 | > 100 | > 100 | – | > 100 | > 100 | > 100 | > 100 | > 100 | > 100 | –
O=C1SC(c2ccccc2)(c2ccccc2)c2ccccc21 | > 100 | > 100 | > 100 | > 100 | > 100 | > 100 | > 100 | > 100 | > 100 | > 100 | > 100 | > 100 | –
Cc1cc(NS(=O)(=O)c2ccc(NC(=O)c3cccc4cc5ccccc5nc34)cc2)no1 | 29.8 | 46.7 | > 100 | 64.8 | 40.7 | 72.2 | 55.9 | 59.1 | 41.4 | 30.3 | 43.3 | 19.2 | –
O=C(O)C(Cc1cnc[nH]1)N=Cc1nc(-c2ccccc2)oc1O (configuration not stated) | > 100 | – | > 100 | > 100 | – | > 100 | > 100 | > 100 | > 100 | > 100 | > 100 | > 100 | –
CC(=O)OCC1OC(n2c3c(cc(C#N)c2=S)CCCCCC3)C(OC(C)=O)C(OC(C)=O)C1OC(C)=O (configuration not stated) | > 100 | – | > 100 | > 100 | > 100 | > 100 | > 100 | > 100 | > 100 | > 100 | > 100 | > 100 | > 100
COc1cc2c(oc(=O)c3cc4ccoc4c(OC)c32)c2cccc(O)c12 | > 100 | > 100 | > 100 | > 100 | > 100 | > 100 | > 100 | > 100 | > 100 | > 100 | > 100 | > 100 | –
C[N+](C)(C)Cc1c(CC#N)[nH]c2ccccc12 | > 100 | > 100 | > 100 | > 100 | > 100 | > 100 | > 100 | > 100 | > 100 | > 100 | > 100 | > 100 | –
Cc1ccc([N+](=O)[O-])cc1NC(=O)C(=O)Cc1cc(=O)oc2cc(O)ccc12 | > 100 | > 100 | > 100 | > 100 | > 100 | > 100 | 75.3 | > 100 | > 100 | > 100 | > 100 | > 100 | –
CC1C2(C)OC(=N)C(C#N)(C(c3ccco3)O2)C1(C#N)C#N (configuration not stated) | > 100 | 27.4 | > 100 | > 100 | > 100 | 44.6 | – | > 100 | 75.9 | 28.1 | 30.4 | > 100 | 80.8
COc1ccc(-c2oc3cc(OC)c(OC)c(OC)c3c(=O)c2OC)cc1OC | > 100 | > 100 | > 100 | > 100 | > 100 | > 100 | – | > 100 | > 100 | > 100 | > 100 | > 100 | > 100
O=c1[nH]c(=O)n(C2OC(CO)C(O)C2O)cc1OCCc1ccccc1 (configuration not stated) | > 100 | > 100 | > 100 | > 100 | > 100 | > 100 | – | > 100 | > 100 | > 100 | > 100 | – | > 100
Clc1ccc2c(c1)CC1C[N+]3=C(CCCC3)C1=C2 (configuration not stated) | > 100 | > 100 | > 100 | > 100 | > 100 | > 100 | – | > 100 | > 100 | > 100 | > 100 | > 100 | > 100
Cc1nc2c(n1CCC(C)C)C(=O)c1ccccc1C2=O | > 100 | – | > 100 | 58.9 | > 100 | 21.1 | – | 67.3 | 34.6 | 28.4 | 64.3 | 86.7 | –
CNC(=O)c1n[nH]n(Cc2ccccc2)c1=S | > 100 | > 100 | > 100 | > 100 | > 100 | > 100 | > 100 | > 100 | > 100 | > 100 | > 100 | > 100 | –
Cn1c(=O)c2nc3nnc(C#N)c(N)n3c2n(C)c1=O | > 100 | > 100 | > 100 | > 100 | > 100 | > 100 | > 100 | > 100 | > 100 | > 100 | > 100 | > 100 | –
